Assay results: PMC13144739, “Global analysis of cancer cell responses to USP9X inhibition” (The EMBO Journal, 2026)

What was measured:
SK-MEL-2 cells = assay: Lattice light sheet imaging of mitosis, SK-MEL-2; assay type: cell-based, human; conditions: 15 µM, imaged 24-48 h
Experimental: (§1) MDA-MB-231, MiaPaca2, HMEC-1, SK-MEL-2 and UO-31 cells were seeded at 2–15 × 10^4 cells/mL in 8-well glass µ-slides (ibidi). […] SPY650-Tubulin, SPY555-DNA (both Spirochrome, Inc.), and Annexin V FITC (Sigma-Aldrich) were added at a final concentration of 1 in 1000. Cells were left to grow for 24 h before time-lapse live-cell data were acquired using a Lattice Light Sheet 7 (Zeiss). […] Aberration correction was set to a value of 170 to minimise aberrations as determined by imaging the Point Spread Function using 100 nm fluorescent microspheres. Data were collected with a frame time of 10 ms and a z step of 0.4 μm with 834 frames per 290 μm by 290 μm. Individual regions were imaged in parallel across six wells of the eight-well chamber slide. Data are presented as Maximum Intensity Projections (MIPs), and these MIPs were used for all downstream analysis. Tile regions were imaged for 24 h with 10 min intervals at 37 °C, 5% CO2. Analysis was performed using the MIPs of the different full fields of cells over the 24–48 h time period. Mitosis and mitosis arrest were classified through a combination of automated image analysis and manual validation. […] Small erroneous detected spots were further removed through a manually adjusted size filter. […] The mean intensity of all tracks was then measured to determine mitosis and mitosis arrest. […]

HMEC-1 cells = assay: Lattice light sheet imaging of mitosis, HMEC-1; assay type: cell-based, human; conditions: 15 µM, imaged 24-48 h
Experimental: as §1

UO-31 cells [1] = assay: IncuCyte live-cell imaging cell death (PI uptake), UO-31; assay type: cell-based, human
Experimental: Cells were seeded at varying densities (1000–8000 cells per well) after initial optimisation in a 96-well tissue culture-treated plate (Thermo Fisher Scientific). Cells were incubated o/n, and the next day, inhibitors and controls diluted in cell media were added to the cells to a final volume of 200 μL per well. Cell death was measured using PI (Sigma-Aldrich). Cells were imaged with four images per well every 2 h for up to 96 h using the IncuCyte live-cell analysis system (S3, Sartorius). Cell proliferation data were analysed using Microsoft Excel by normalising confluence to control conditions. For cell killing readouts, the number of PI-positive cells was normalised to the control conditions for each timepoint.

[2] = Caco-2 cell permeability assessment; assay type: in vitro ADME; conditions: human, 10 µM donor
Experimental: The apparent permeability coefficient was assessed using Caco-2 cell monolayers as described previously (Katneni et al, [2018]). […] Compound flux was assessed over a period of up to 120 min, with samples taken from the acceptor chamber at multiple time points. Samples from the donor chamber were taken at the beginning and at the end of the experiment. The mass balance at the end of the permeability experiment was calculated according to the following equation, where compound mass was calculated as the product of molar concentration and volume of donor or acceptor solution: Mass balance%=Massfinal donor+Massfinal acceptor/Massinitial donorx100
The apparent permeability coefficient (Papp) was determined based on the rate of compound appearance in acceptor buffer at steady state using the following equation: Papp(cm/s)=dQ/dtx1/cinitial donorx A dQ/dt : apparent steady-state transport rate (µmol/s)
A: surface area of Caco-2 monolayer (0.3 cm^2 in the test system used)
cinitial donor : concentration in the donor at the start of experiment (µmol/cm^3).

UO-31 cells [3] = assay: Lattice light sheet imaging, UO-31; assay type: cell-based, human; conditions: 15 µM, imaged 24-48 h
Experimental: as §1

[4] = system: T1, USP9X Δβ catalytic domain; assay: Ub-PA suicide probe assay, USP9X Δβ; assay type: biochemical, human; conditions: 50 µM compound
T1 construct: His/SUMO (pOPIN-S vector) (N, cleaved yes); made in house; host or cells: E. coli BL21
Source text: An expression construct for the USP9X catalytic domain (aa 1551–1970, […]: Q93008-1), was codon optimised for bacterial expression, synthesised in gBlock format (Integrated DNA Technologies) and cloned into the pOPIN-S vector (Berrow et al, [2007]), which was digested with KpnI and HindIII using In-Fusion™ HD cloning (Takara Clontech). For SPR, constructs were ordered with a GGS linker followed by a C-terminal AviTag™ (aa sequence: […]) and were cloned as above. For the USP9X Δβ catalytic domain a deletion construct ΔE1924-K1943 and for USP9X/USP24 chimera, a construct with USP9X Y1757-A1766 replaced with the USP24 (NCBI Reference Sequence: NP_056121) aa motif […] was used. All constructs were confirmed by Sanger sequencing (AGRF).
For inhibitor activity assays, USP9X catalytic domain (di-ubiquitin cleavage assay: 750 nM, ubiquitin-probe assays: 2.5 µM) was pre-incubated with USP9X inhibitors for 30 min at ambient temperature and subsequently mixed with di-ubiquitin (final concentration 2 µM) in assay buffer (25 mM Tris [pH 8.0], 150 mM NaCl, 10 mM DTT) at pH 8.0 or was mixed with ubiquitin-propargylamide (Ub-PA)/ubiquitin-vinyl sulfonate (Ub-VS) probes at a final concentration of 10 µM in assay buffer. […]

USP9X catalytic domain = target: T2, USP9X catalytic domain (Homo sapiens, UniProt Q93008); assay: K48-linked di-ubiquitin cleavage assay; assay type: biochemical; conditions: 50 µM compound
T2 construct: His/SUMO (pOPIN-S vector) (N, cleaved yes); made in house; host or cells: E. coli BL21
T2 sequence (Q93008 1551-1970): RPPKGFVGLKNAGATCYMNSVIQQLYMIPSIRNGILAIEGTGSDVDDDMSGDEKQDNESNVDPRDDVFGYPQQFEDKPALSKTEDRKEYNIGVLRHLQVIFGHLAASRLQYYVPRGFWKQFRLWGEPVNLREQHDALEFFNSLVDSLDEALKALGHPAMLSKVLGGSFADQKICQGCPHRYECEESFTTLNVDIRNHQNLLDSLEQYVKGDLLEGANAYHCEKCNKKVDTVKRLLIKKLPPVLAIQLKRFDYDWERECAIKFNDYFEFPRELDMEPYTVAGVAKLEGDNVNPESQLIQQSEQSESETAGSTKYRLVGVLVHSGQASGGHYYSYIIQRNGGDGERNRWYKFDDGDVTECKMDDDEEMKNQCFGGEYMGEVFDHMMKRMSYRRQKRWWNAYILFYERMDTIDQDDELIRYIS
Experimental: For inhibitor activity assays, USP9X catalytic domain (di-ubiquitin cleavage assay: 750 nM, ubiquitin-probe assays: 2.5 µM) was pre-incubated with USP9X inhibitors for 30 min at ambient temperature and subsequently mixed with di-ubiquitin (final concentration 2 µM) in assay buffer (25 mM Tris [pH 8.0], 150 mM NaCl, 10 mM DTT) at pH 8.0 or was mixed with ubiquitin-propargylamide (Ub-PA)/ubiquitin-vinyl sulfonate (Ub-VS) probes at a final concentration of 10 µM in assay buffer. For both assays, the mixture was incubated over a time course, and the reaction was stopped by mixing samples with 2× LDS sample buffer (Invitrogen) supplemented with 3% (v/v) 2-mercaptoethanol. All protein samples were run on a 4–12% Bis-Tris SDS-PAGE gradient gel (Invitrogen) for 60 min at 140 V. The gel was stained with InstantBlue® (Abcam) and imaged.

## Cc1[nH]c2ccc(C(=O)N3CCN(S(=O)(=O)c4ccc5c(c4)OCCO5)CC3)cc2c1C [WEHI-092]
SK-MEL-2 cells
  cell division phenotype, SK-MEL-2: significant defects in cell division
HMEC-1 cells
  cell division phenotype, HMEC-1: proceeded through mitosis normally
UO-31 cells [1]
  cell killing of UO-31 cells (IncuCyte): killed
[2]; Caco-2, apical-to-basolateral
  Papp A→B at 10 µM: 42.6 ×10⁻⁶ cm/s
[2]; Caco-2, basolateral-to-apical
  Papp B→A at 10 µM: 70.4 ×10⁻⁶ cm/s
UO-31 cells [3]
  arrested mitosis phenotype, UO-31: did not display the arrested mitosis phenotype
[4]
  modification of USP9X Δβ with Ub-PA probe: unable to be modified by the probe
USP9X catalytic domain
  cleavage of K48-linked di-ubiquitin: inhibited cleavage of K48-linked di-ubiquitin
